Test results taken from US12370263B2, “Cyclic dinucleotide derivative based antibody-drug conjugates” (DAIICHI SANKYO COMPANY, LIMITED, priority 2018, dated 2025).

Assays:
[1] = test system: CT26.WT cells; assay: Anti-Tumor Test (1), intratumoral administration; format: in vivo, BALB/c mouse; conditions: 10 μg intratumorally on Day 7, 9, and 11; CT26.WT in BALB/c mice; FIGS. 7a and 7b
Experimental: Mice: Before use for experiment, 5-week-old female BALB/c mice (BALB/cAnNCrlCrlj) (Charles River Laboratories Japan, Inc.) were habituated under SPF conditions for 4 days or longer.
Measurement, calculation formula: In all the studies, the major axis and minor axis of a tumor were measured twice or three times per week by using an electronic digital caliper (CD15-CX, Mitutoyo Corporation) to calculate tumor volume (mm^3). The calculation formula is as follows. Tumor volume (mm^3)=0.5×Major axis (mm)×[Minor axis (mm)]^2
Each test compound was diluted with physiological saline (Otsuka Pharmaceutical Factory, Inc.) for use. In administration of it, 50 μL was intratumorally administered.
Cells of the mouse colorectal cancer cell line CT26.WT (CRL2638) purchased from the American Type Culture Collection were used. CT26.WT cells were suspended in physiological saline, 1.0×10^6 cells were subcutaneously transplanted into the right axilla of each BALB/c mouse (Day 0), and 7 days thereafter the mice were randomly grouped. Each test compound in a dose of 10 μg was intratumorally administered on Day 7, 9, and 11, three times in total. A group with administration of physiological saline was set as a group with a vehicle. The number of mice in each group was five or six.

[2] = molecular target: Human STING (Homo sapiens, UniProt Q86WV6, G230A/H232R/R293Q/R71H); assay: Reporter gene assay, human STING agonist activity, THP1-Dual cells (HAQ-mutated), IRF pathway; conditions: THP1-Dual cells IRF EC50, THP1-Dual cells (HAQ-mutated), 24 hours; 100% = maximum count with ML-RR-CDA·2Na+
Experimental: Human STING agonist activity was evaluated by using THP1-Dual™ cells (HAQ-mutated) (InvivoGen, CA, US), with which the activation of the pathway of interferon regulatory factor-3 (IRF3), which is present in the downstream of the STING pathway, can be confirmed.
Assay was performed as follows. First, a test compound diluted with PBS was aliquoted into a transparent 96-well plate (Corning Incorporated, NY, US) at 20 μL/well. Subsequently, reporter cells suspended in assay buffer (an RPMI1640 medium or DMEM medium containing 10% bovine serum albumin) were added at 180 μL/well (1×10^5 cells/well) to initiate stimulation. After the cells were cultured in an environment at 37° C. and 5% CO2 for 24 hours, the resultant was centrifuged to collect the supernatant. To a white 384-well plate, 6 μL of the supernatant collected was added, and 15 μL of QUANTI-Luc (InvivoGen) solution was added thereto. After the resultant was well mixed together, emission was measured by using a plate reader (PerkinElmer, Inc., MA, US).

[3] = molecular target: T1, HisAviTEV-hSTING (139-342) human wild-type protein (Homo sapiens, UniProt Q86WV6, H232R); assay: Protein thermal shift assay, STING C-terminal binding domain protein; conditions: test compound final concentration 0.5 mM
T1 construct: made in house; host or cells: E. coli Rosetta 2 (DE3), co-expressed with BirA (1-321)

[4] = molecular target: T2, HisAviTEV-hSTING (139-342) human REF-mutated protein (Homo sapiens, UniProt Q86WV6); assay: as above; conditions: test compound final concentration 0.5 mM
T2 construct: made in house; host or cells: E. coli Rosetta 2 (DE3), co-expressed with BirA (1-321)

[5] = molecular target: T3, HisAviTEV-hSTING (139-342) human AQ-mutated protein (Homo sapiens, UniProt Q86WV6, G230A/H232R/R293Q); assay: as above; conditions: test compound final concentration 0.5 mM
T3 construct: made in house; host or cells: E. coli Rosetta 2 (DE3), co-expressed with BirA (1-321)

[6] = molecular target: T4, His-Avi-TEV-mSTING (138-341) mouse wild-type protein (Mus musculus, UniProt Q3TBT3); assay: as above; conditions: test compound final concentration 0.5 mM
T4 construct: made in house; host or cells: E. coli Rosetta 2 (DE3), co-expressed with BirA (1-321)
Experimental: Each of these expression strains was added to a TB medium containing 100 μg/mL ampicillin, 50 μg/mL streptomycin, and 30 μg/mL kanamycin, cultured at 37° C., then exposed to 100 μM IPTG for inducible expression, and further cultured at 16° C.
The culture solution was centrifuged, and the resulting bacterial cells were suspended in 50 mM HEPES pH 8.0, 500 mM NaCl, 20 mM imidazole, 1 mM DTT, 5% (w/v) glycerol, Complete EDTA free, and then subjected to freeze-thawing. After addition of Lysozyme and DNase I, proteins were extracted by ultrasonic disintegration, and centrifugation was performed and the resulting supernatant was collected. The supernatant obtained was purified by using an AKTA express chromatography system (GE Healthcare, IL, US) with a HisTrap FF column (GE Healthcare), and eluted with buffer (20 mM HEPES pH 7.5, 120 mM NaCl, 20% Glycerol, 0.8 mM DTT) through a Superdex 200 16/60 column (GE Healthcare). […] The protein concentrations were measured by using a NanoDrop2000 (Thermo Fisher Scientific, MA, US), and the proteins were cryopreserved at −80° C. until use.
The binding ability of each compound to the STING C-terminal binding domain proteins was evaluated by protein thermal shift assay, which uses the elevation of thermal denaturation temperature of protein as an index.
Specifically, 3 μL of a test compound (final concentration: 0.5 mM), 3 μL of SYPRO Orange Protein Gel Stain (Thermo Fisher Scientific) (final concentration: 20-fold), and 6 μL of a STING protein were mixed with use of assay buffer (20 mM Tris-HCl pH 7.5, 120 mM NaCl) in a 384-well real-time PCR plate, and mixed together with a plate shaker. With a real-time PCR system (Thermo Fisher Scientific), the temperature was increased from 25° C. to 95° C. at a rate of 0.03° C./sec, and the thermal denaturation temperature of the protein was measured by using fluorescence emitted from SYPRO Orange as an index. From the measurement acquired, Tm (the midpoint of the unfolding transition) (° C.) was determined as a temperature at which the increase rate of fluorescence intensity was maximized by using the analysis software Protein Thermal Shift software (Thermo Fisher Scientific). The Tm value for a well with no compound was subtracted from the Tm value for each test compound to calculate the Tm shift caused by the compound as ΔTm (° C.).

[7] = test system: CT26.WT-hHER2 cells; assay: Anti-Tumor Test (6); format: in vivo, BALB/c mouse; conditions: 1.2 μg (equivalent of the conjugate's CDN component) into the tail vein on Day 7, once; CT26.WT-hHER2 in BALB/c mice
Experimental: Each antibody-CDN conjugate was diluted with acetate buffer (10 mM Acetate Buffer, 5% Sorbitol, pH 5.5) (NACALAI TESQUE, INC.) for use. In administration of it, 200 μL was administered into the tail vein.
CT26.WT-hHER2 cells were suspended in physiological saline, 5.0×10^6 cells were subcutaneously transplanted into the right axilla of each BALB/c mouse (Day 0), and 7 days thereafter the mice were randomly grouped. Each specimen for administration was administered into the tail vein on Day 7, once in total. A group with administration of acetate buffer was set as a group with a vehicle. The number of mice in each group was five.

T2 sequence (Q86WV6 with tags, fused parts or gaps, change not shown): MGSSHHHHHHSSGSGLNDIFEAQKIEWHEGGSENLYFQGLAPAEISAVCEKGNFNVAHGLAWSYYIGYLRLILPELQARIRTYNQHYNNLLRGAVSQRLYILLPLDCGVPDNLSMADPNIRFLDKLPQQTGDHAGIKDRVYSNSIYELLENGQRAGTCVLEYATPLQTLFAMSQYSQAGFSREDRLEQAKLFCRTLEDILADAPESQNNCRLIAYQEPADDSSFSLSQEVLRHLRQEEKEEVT
T3 sequence (Q86WV6 with tags, fused parts or gaps G230A/H232R/R293Q): as the sequence (Q86WV6 with tags, fused parts or gaps, change not shown) above, with G131A, H133R, R194Q counted along it
Human STING, sequence (Q86WV6 whole entry R71H/G230A/H232R/R293Q, the tested form may be a part): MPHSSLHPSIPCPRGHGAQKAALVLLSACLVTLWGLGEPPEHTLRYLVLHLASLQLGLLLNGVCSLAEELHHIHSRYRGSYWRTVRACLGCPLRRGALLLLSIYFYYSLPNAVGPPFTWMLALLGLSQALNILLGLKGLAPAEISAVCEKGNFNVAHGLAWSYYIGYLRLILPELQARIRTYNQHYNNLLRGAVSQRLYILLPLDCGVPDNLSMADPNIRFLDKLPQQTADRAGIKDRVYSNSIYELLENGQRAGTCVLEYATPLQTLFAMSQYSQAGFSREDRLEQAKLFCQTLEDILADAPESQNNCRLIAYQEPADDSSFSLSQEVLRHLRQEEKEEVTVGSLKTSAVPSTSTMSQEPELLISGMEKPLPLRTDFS
T1 sequence (Q86WV6 with tags, fused parts or gaps H232R): as the sequence (Q86WV6 with tags, fused parts or gaps, change not shown) above, with H133R counted along it
T4 sequence (Q3TBT3 with tags, fused parts or gaps limits assumed): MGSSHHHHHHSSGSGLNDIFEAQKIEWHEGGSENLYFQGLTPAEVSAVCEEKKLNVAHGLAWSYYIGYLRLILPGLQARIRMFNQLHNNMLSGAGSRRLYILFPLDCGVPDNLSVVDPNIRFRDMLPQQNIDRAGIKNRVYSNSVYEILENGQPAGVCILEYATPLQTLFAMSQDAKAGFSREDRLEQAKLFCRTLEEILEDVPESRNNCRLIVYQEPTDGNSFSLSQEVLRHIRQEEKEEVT

| Compound | EC50 [2] | ΔTm at 500 µM [3] | ΔTm at 500 µM [4] | ΔTm at 500 µM [5] | ΔTm at 500 µM [6] | ΔTm Hu-WT [3] | ΔTm Hu-REF [4] | ΔTm Hu-AQ [5] | ΔTm Ms-WT [6] | tumor growth (tumor volume) [1] | tumor growth (tumor volume) [7] |
| --- | --- | --- | --- | --- | --- | --- | --- | --- | --- | --- | --- |
| Nc1nc(NCCO)nc2c1ncn2[C@@H]1O[C@@H]2COP(=O)(S)O[C@H]3[C@@H](O)[C@H](n4cc5c6c(ncnc64)NCCC5)O[C@@H]3COP(=O)(S)O[C@@H]1[C@@H]2O (single isomer, unassigned) [9b] | 2400 nM | – | – | – | – | – | – | – | – | significantly suppressed | – |
| NCCNc1nc(N)c2ncn([C@@H]3O[C@@H]4COP(=O)(S)O[C@H]5[C@@H](O)[C@H](n6cc7c8c(ncnc86)NCCC7)O[C@@H]5COP(=O)(S)O[C@@H]3[C@@H]4F)c2n1 (single isomer, unassigned) [42a] | 4200 nM | 6.5 °C | 2.8 °C | 9 °C | 11.2 °C | – | – | – | – | – | – |
| NCCNc1nc(N)c2ncn([C@@H]3O[C@@H]4COP(=O)(S)O[C@H]5[C@@H](O)[C@H](n6cc7c8c(ncnc86)NCCC7)O[C@@H]5COP(=O)(S)O[C@@H]3[C@@H]4O)c2n1 (single isomer, unassigned) [8b] | 6600 nM | – | – | – | – | – | – | – | – | significantly suppressed | not suppressed |
| Nc1nc2c(ncn2[C@@H]2O[C@@H]3COP(=O)(S)O[C@H]4[C@@H](O)[C@H](n5cc6c7c(ncnc75)NCCC6)O[C@@H]4COP(=O)(S)O[C@@H]2[C@@H]3O)c(=O)[nH]1 (single isomer, unassigned) [4a] | 2100 nM | 11.5 °C | 5.2 °C | 17 °C | 17.5 °C | – | – | – | – | – | – |

Now those with a lower EC50 [2], led by results:

| EC50 [2] | ΔTm at 500 µM [3] | ΔTm at 500 µM [4] | ΔTm at 500 µM [5] | ΔTm at 500 µM [6] | ΔTm Hu-WT [3] | ΔTm Hu-REF [4] | ΔTm Hu-AQ [5] | ΔTm Ms-WT [6] | Compound | tumor growth (tumor volume) [1] | tumor growth (tumor volume) [7] |
| --- | --- | --- | --- | --- | --- | --- | --- | --- | --- | --- | --- |
| 600 nM | 10.6 °C | 5.7 °C | 14.8 °C | 15.7 °C | – | – | – | – | O=c1c2ncn([C@@H]3O[C@@H]4COP(=O)(S)O[C@H]5[C@@H](O)[C@H](n6cc7c8c(ncnc86)NCCC7)O[C@@H]5COP(=O)(S)O[C@@H]3[C@@H]4O)c2ncn1CCO (single isomer, unassigned) [6a] | significantly suppressed | – |
| 900 nM | – | – | – | – | 10.6 °C | 4.6 °C | 13.1 °C | 15.8 °C | O=c1[nH]cnc2c1ncn2[C@@H]1O[C@@H]2COP(=O)(S)O[C@H]3[C@@H](O)[C@H](n4cc5c6c(ncnc64)NCCC5)O[C@@H]3COP(=O)(S)O[C@@H]1[C@@H]2O (single isomer, unassigned) [25b] | – | – |
| 340 nM | 12.3 °C | 6.5 °C | 15.6 °C | 13 °C | – | – | – | – | O=C(CO)NCCn1cnc2c(ncn2[C@@H]2O[C@@H]3COP(=O)(S)O[C@H]4[C@@H](F)[C@H](n5cc6c7c(ncnc75)SCCC6)O[C@@H]4COP(=O)(S)O[C@@H]2[C@@H]3O)c1=O (single isomer, unassigned) [50a] | – | – |
| 980 nM | 11.2 °C | 5.2 °C | 13.6 °C | 15.3 °C | – | – | – | – | NCCNc1nc(N)c2ncn([C@@H]3O[C@@H]4COP(=O)(S)O[C@H]5[C@@H](F)[C@H](n6cc7c8c(ncnc86)NCCC7)O[C@@H]5COP(=O)(S)O[C@@H]3[C@@H]4O)c2n1 (single isomer, unassigned) [37a] | – | – |
| 190 nM | 10.4 °C | 5.7 °C | 12.9 °C | 15 °C | – | – | – | – | O=c1c2ncn([C@@H]3O[C@@H]4COP(=O)(S)O[C@H]5[C@@H](O)[C@H](n6cc7c8c(ncnc86)NCCC7)O[C@@H]5COP(=O)(S)O[C@@H]3[C@@H]4F)c2ncn1CCO (single isomer, unassigned) [39a] | – | – |
